Test results taken from patent US20080076772A1, “Anti-Inflammatory Agents” (Pharma Mar S.A. Sociedad Unipersonal, priority 2004, published 2008).
pIC50: −log10 of the molar value.

Assays:
monocytes = experiment: Apoptosis of monocytes (Annexin V / PI staining); assay type: cell-based, human; settings: monocytes exposed to drug
Experimental: (§1) Cells exposed to treatments were fixed with ethanol 70%, washed in PBS and stained with propidium iodide (PI) solution containing 10 ug/ml PI in PBS and 25 μl RNAse 10,000 units, overnight in the dark. PI incorporation was evaluated on at least 20,000 cells/sample using a FACS Calibur instrument (Becton Dickinson, Sunnyvale, Calif., USA), with a bandpass filter at 620 nm. Apoptosis was detected by staining with AnnexinV and PI. FACS analysis was performed using a bandpass filter 530 and 620 nm for green (AnnexinV) and red (PI) fluorescence respectively, in combination with a […] dichroic mirror.

thymocytes = experiment: Cell viability of freshly isolated thymocytes (PI staining, flow cytometry); assay type: cell-based; settings: Homo sapiens, Thymocyte, 48 h
Experimental: Purified populations of human blood monocytes were prepared as previously described by differential density centrifugation on Ficoll and Percoll gradients (see Allavena, P., Piemonti, L., Longoni, D., Bernasconi, S., Stoppacciaro, A., Ruco, L., and Mantovani, A. IL-10 prevents the differentiation of monocytes to dendritic cells but promotes their maturation to macrophages. Eur J Immunol, 28: 359-369, 1998). […] Human thymocytes were isolated from resected thymus from pediatric patients undergoing surgery. Thymocytes were obtained by teasing and isolated on Percoll gradient.
Cell viability was analyzed by DNA content in Flow Cytometry
as §1
Purified preparations of blood monocytes, lymphocytes and thymocytes were cultured with different concentrations of ecteinascidin 743 for 48 h. […]

IL-6 = IL-6 production by LPS-stimulated in vitro differentiated macrophages (ELISA); assay type: cell-based; settings: Homo sapiens, Macrophage; 5 nM, n=2; read-out: overall inhibition of IL-6 production, macrophages
Experimental: (§2) Supernatants of untreated cells or cells treated with ecteinascidin 743 or other anti-neoplastic agents were collected after 24 h culture and frozen. Monocytes, macrophages and TAM were stimulated with 100 ng/ml LPS to induce maximal cytokine production. Determination of cytokines CCL2, TNF and IL-6 was measured by specific ELISA following the manufacturer's instructions.
(§3) Monocytes and in vitro differentiated macrophages were stimulated with LPS (100 ng/ml). After 1 h LPS stimulation they were treated with ecteinascidin 743. After 16 h incubation, cell supernatants were harvested and tested in ELISA. Under these treatment conditions cell viability was usually >85% for concentrations up to 5 nM. […] Mean inhibition at 5 nM, for monocytes, was 65% (range 50-80%, n=5) and was 50% (range 25-75%, n=5) for in vitro differentiated macrophages. Results are mean+/−SE of 3-5 experiments
We also tested two other cytokines, IL-6 and TNF, produced by macrophages and tumour cells, which have inflammatory properties and also act as growth factors for some tumours. IL-6 production was always reduced after ecteinascidin 743 treatment, with an overall inhibition at 5 nM of 54% (range 51-57%, n=2) and 69% (range 66-72%, n=2), in monocytes and macrophages, respectively (FIG. 6B). […]

CCL2 [1] = experiment: CCL2 production by LPS-stimulated monocytes (ELISA); assay type: cell-based, human
Experimental: as §2, §3
Similar results were obtained when monocytes were stimulated with LPS (100 ng/ ml) and treated with ET743 and the other ecteinascidin compounds, although the overall inhibition was less marked compared with the previous experiment where the tumor supernantant was used as CCL2-inducing stimulus.
CCL2 and TNF production by LPS-stimulated monocytes treated with the indicated doses of the anti-tumor agents was also tested. Cell supernatants were harvested after 24 h-incubation and tested in ELISA. […] None of these compounds interfered with the production of TNF.
A major finding of our work is the inhibitory activity of ecteinascidin 743 on the production of inflammatory cytokines. Among various inflammatory cytokines produced by monocyte/macrophages we have tested IL-6, TNF and the chemokine CCL2. CCL2 is a chemokine attracting monocytes and other leukocyte subsets, and is produced both by monocyte/macrophages and several tumour cells. It has been described that ovarian adenocarcinoma cells produce huge amounts of CCL2 and that their levels correlate with the macrophage content of tumours. CCL2 is therefore one of the most important factors regulating monocyte/macrophages recruitment at the tumour site. […] Thus, lower levels of CCL2 by TAM and tumour cells are likely to reduce the number of macrophages recruited at the tumour site. In the above described in vitro experiments ecteinascidin 743 was present throughout the 16-h culture period. We also checked whether a shorter in vitro exposure to ecteinascidin 743 was sufficient to affect cytokine production. Monocytes exposed to ecteinascidin 743 were washed after 1 hour culture and replaced in fresh medium.

[2] = test system: Tumour-Associated Macrophages (TAM); experiment: Cell viability of Tumour-Associated Macrophages from ovarian cancer ascites; assay type: cell-based; settings: Homo sapiens, Macrophage; 10 nM, 48 h, three patients
From the text: (§4) Tumour-associated macrophages (TAM) and tumour cells were isolated from the ascitic fluid of patients with diagnosed ovarian adenocarcinoma, admitted to the Clinic of Obstetrics and Gynecology of the University of Milan-Bicocca, S Gerardo Hospital. Cells contained in the ascitic fluid were centrifuged and isolated by differential density gradients of Ficoll and Percoll, and plastic adherence as previously described (see Allavena, P., Peccatori, F., Maggioni, D., Erroi, A., Sironi, M., Colombo, N., Lissoni, A., Galazka, A., Meiers, W., Mangioni, C., et al. Intraperitoneal recombinant gamma-interferon in patients with recurrent ascitic ovarian carcinoma: modulation of cytotoxicity and cytokine production in tumour-associated effectors and of major histocompatibility antigen expression on tumour cells. Cancer Res, 50: 7318-7323, 1990). Purity of TAM and tumour cell preparations was usually>65±10% as defined by morphology and phenotype analysis. Cells were treated with ecteinascidin 743 at the indicated concentrations and cultured for 1-5 days, as specified in figure legends. At the end of the incubation period cells were collected, washed and used for DNA analysis or functional assays.
Apoptosis was detected by staining with AnnexinV and PI.
We also tested Tumour-Associated Macrophages (TAM) isolated from the ascites of non-treated ovarian adenocarcinoma patients. […]

CCL2 [3] = experiment: CCL2 production by TAM (ELISA); assay type: cell-based, human; settings: 16 h, n=4
From the text: as §4, with “At the end of the incubation period cells were collected, washed and used for DNA analysis or functional assays.” left out
Monocytes, macrophages and TAM were stimulated with 100 ng/ml LPS to induce maximal cytokine production. Determination of cytokines CCL2, TNF and IL-6 was measured by specific ELISA following the manufacturer's instructions. […]

Compound: COc1cc2c(cc1O)CCN[C@]21CS[C@@H]2c3c(OC(C)=O)c(C)c4c(c3[C@H](COC1=O)N1[C@@H]2[C@H]2c3c(cc(C)c(OC)c3O)C[C@@H]([C@@H]1O)N2C)OCO4 [ecteinascidin 743]
- Annexin V staining of dying monocytes (apoptosis) (monocytes): stained positive for Annexin V
- pIC50 (thymocytes): < 7.40
- inhibition at 0.005 µM (IL-6): 69%
- inhibition at 0.005 µM (CCL2 [1]; Homo sapiens, Monocyte, 5 nM, LPS 100 ng/ml, 16 h, n=5): 65%
- inhibition of CCL2 production (CCL2 [1]; monocytes washed after 1 hour culture with drug, fresh medium): 57%
- inhibition of CCL2 production (CCL2 [1]; monocytes, 16 h-treatment): 69%
- mortality at 0.01 µM [2]: 40 to 70%
- reduction of LPS-stimulated production of CCL2 by TAM (CCL2 [3]; LPS 100 ng/ml): 50%
- reduction of constitutive production of CCL2 by TAM (CCL2 [3]; no LPS): 43%
